Test results published in US9605013B2, “Derivatives of hemin with antibacterial and antiviral activity” (OBSCHESTVO S OGRANICHENNOI OTVETSTVENNOSTIYU …, priority 2011, dated 2017).

Legend:
[1] = tested on: Staphylococcus epidermidis No. 533; assay: Antibacterial specific activity, twofold dilutions, visual growth evaluation; assay type: cell-based; settings: S. epidermis 533; 36° C., 24 hours
Outline: (§1)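 Twofold serial broth dilutions, inoculum 5×10^5 CFU/ml, compounds from water or DMSO stocks; 24 h at 36° C. MIC taken visually as last dilution suppressing growth versus compound-free growth control.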

Escherichia coli 4300 = assay: as above; assay type: cell-based; settings: E. coli 4300; 36° C., 24 hours
[2] = tested on: Staphylococcus aureus No. 5 (MRSA); assay: as above; assay type: cell-based; settings: St. aur No. 5 MRSA; 36° C., 24 hours
Outline: as §1

[3] = tested on: Staphylococcus aureus No. 3797 (MRSA); assay: as above; assay type: cell-based; settings: St. aur No. 3797 MRSA; 36° C., 24 hours
Outline: as §1

[4] = tested on: Staphylococcus aureus No. 100 KC; assay: as above; assay type: cell-based; settings: S. aureus 100 KC; 36° C., 24 hours
Outline: as §1

[5] = tested on: Staphylococcus aureus No. 25923 ATCC; assay: as above; assay type: cell-based; settings: S. aureus 25923; 36° C., 24 hours
Outline: as §1

[6] = tested on: Bacillus subtilis BKM B-501; assay: Antibacterial activity, serial dilutions in liquid MH medium; assay type: cell-based; settings: for MIC: MH medium, 20 h, 37° C., 100% growth inhibition; for MBC: no colonies on agarized MH medium
Outline: (§2)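 Broth microdilution in Mueller-Hinton medium at 37 °C with stirring, using exponential-phase cultures seeded at 5×10^4 to 1×10^5 cells/mL with twofold serial compound dilutions. Growth inhibition read as A595 after 20 h, corrected for compound absorbance; MIC and MBC determined.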

[7] = tested on: Micrococcus luteus BKM Ac-2230; assay: as above; assay type: cell-based; settings: for MIC: MH medium, 20 h, 37° C., 100% growth inhibition; for MBC: no colonies on agarized MH medium
Outline: as §2

[8] = tested on: Staphylococcus aureus 209P; assay: as above; assay type: cell-based; settings: for MBC: no colonies on agarized MH medium
Outline: as §2

Compound	MIC [1] [µM]	MIC (Escherichia coli 4300) [µM]	MIC [2] [µM]	MIC [3] [µM]	MIC [4] [µM]	MIC [5] [µM]	water solubility (Water solubility)	MIC [6] [µM]	MBC [6] [µM]	MIC [7] [µM]	MBC [7] [µM]	MBC [8] [µM]	MIC ([8]; MH medium, 20 h, 37° C., 100% growth inhibition) [µM]
6,7-bis-(Amide N^α-Glycyl)-Protohemin (IX) [IV]	1.56	>50.0	3.12	3.12	0.39	0.39	water-insoluble	1.6	1.6	0.8	0.8		
6,7-bis-[(Diamide N^α-L-Arginyl)-L-glutamyl]-Protohemin (IX)	0.78	16.6			0.78	1.56	water-soluble	1.6	1.6	0.8	0.8	25	
C=CC1=C(C)c2cc3[n-]c(cc4[n-]c(cc5nc(cc1n2)C(C)=C5C=C)c(C)c4CCC(=O)N[C@@H](CCCNC(=N)N)C(N)=O)c(CCC(=O)N[C@@H](CCCNC(=N)N)C(N)=O)c3C.[Cl-].[Fe+3] [II, 6,7-bis-(Amide N^α-Arginyl)-Protohemin (IX)]	0.39	41.6	41	50	2.6	1.04	water-soluble	0.8	0.8	0.8	0.8	6.3	
C=CC1=C(C)c2cc3[n-]c(cc4[n-]c(cc5nc(cc1n2)C(C)=C5C=C)c(C)c4CCC(=O)N[C@@H](CO)C(N)=O)c(CCC(=O)N[C@@H](CO)C(N)=O)c3C.[Cl-].[Fe+3] [V, 6,7-bis-(Amide N^α-Seryl)-Protohemin (IX)]	1.56	>50.0	1.56	1.56	0.52	0.78	water-insoluble	1.6	1.6	0.8	0.8	12.5	
C=CC1=C(C)c2cc3[n-]c(cc4[n-]c(cc5nc(cc1n2)C(C)=C5C=C)c(C)c4CCC(=O)N[C@@H](CO)C(=O)O)c(CCC(=O)N[C@@H](CO)C(=O)O)c3C.[Cl-].[Fe+3] [VI, 6,7-bis-(N^α-Seryl]-Protohemin (IX)]	3.12	>50.0	0.78	0.78	5.21	12.5		12.5	25	6.3	25		50
